Test results reported in PMC9551036, “A selective and orally bioavailable VHL-recruiting PROTAC achieves SMARCA2 degradation in vivo” (Nature Communications, 2022).
“And” between values parts separate entries of the source, which are not always exact repeats. Equal values may be shown once. Read-outs that look alike come from different tables or passages of the source.

How the values were obtained:
KRT80 mRNA = assay: qPCR for KRT80 mRNA levels in A549 and NCI-H1568 cells; type: cell-based, human; conditions: for EC50: Homo sapiens
Experimental: 350,000–500,000 cells were seeded in 6-well plates and compounds were added the next day at the indicated concentrations after pre-dilution in medium. Cells were incubated for 18 h, harvested, and RNA was extracted using the RNeasy Mini Kit (Qiagen) according to manufacturer’s instructions. A DNAse digestion step was included. 1 µg RNA was used for cDNA synthesis with the SuperScript VILO cDNA synthesis kit (Invitrogen) according to manufacturer’s instructions. TAQMAN qPCR was then performed using the QuantiTect Multiplex PCR kit (Qiagen) with probes for KRT80 (Hs01372365_m1, Applied Biosystems) and human GAPDH as endogenous control (4326317E, VIC/MGB probe, Primer Limited) for normalisation in a duplex assay over 45 cycles with 100 ng cDNA input. […] Curves were fitted using a 4-parametric logistic model.

[1] = test system: NCI-H1568 tumour xenograft; assay: NCI-H1568 xenograft tumour growth; type: in vivo, mouse; conditions: for Tumor volume: qd, individual animals; for TGI: NCI-H1568 xenograft, day 17
Experimental: To establish subcutaneous tumours, mice were injected with 5 × 10^6 NCI-H1568 in PBS with 5% FCS or with 1 × 10^7 A549 cells in PBS with 5% FCS. Tumour diameters were measured with a caliper three times a week. The volume of each tumour (in mm^3) was calculated according to the formula [tumour volume = length × diameter^2 × π/6]. To monitor side effects of treatment, mice were inspected daily for abnormalities and body weight was determined daily after the start of treatment. Animals were sacrificed when the tumours reached a size of 1500 mm^3. Mice were randomised into treatment groups when the average tumour size reached ~210–220 mm^3. Group sizes were calculated individually for each tumour model based on tumour growth during model establishment experiments. A power analysis was performed using a sample size calculator (https://www.stat.ubc.ca/~rollin/stats/ssize/n2.html). For both models used in the study, 10 mice per group were used for each experiment. All administrations were dosed with 10 ml/kg (s.c. and oral). Control mice were dosed subcutaneously with 10% HP-β-CD in 50% Ringer solution and orally with 15% HP-β-CD, that means the control mouse treatment was corresponding to the solvent of the compounds. Compound 6 was dosed subcutaneously either in a d1-4 q3d, d6-8 q2d, d11-13 q2d treatment (Treatment 1) or a q3 or 4d treatment (Treatment 2).
For the evaluation of the statistical significance of tumour growth inhibition, a one-tailed nonparametric Mann-Whitney-Wilcoxon U-test was performed, based on the hypothesis that an effect would only be measurable in one direction (i.e. expectation of tumour inhibition but not tumour stimulation). Analysis was performed on the day indicated for each experiment. The p values obtained from the U-test were adjusted using the Bonferroni-Holm correction. By convention, p values ≤0.05 indicate significance of differences.

Cc1ncsc1-c1ccc(C(CCC(C)CCN2CCC(c3ccc4c(c3)n(C3CCCC3)c3nc(=O)c5c(Br)cccc5n43)CC2)NC(=O)C2CC(O)CN2C(=O)C(NC(=O)C2(F)CC2)C(C)(C)C)cc1 (centres unmarked) [ACBI2]
KRT80 mRNA levels (KRT80 mRNA; 18 h treatment): decreased mRNA levels of KRT80
Bottom (% KRT80 mRNA, four-parameter fit) (KRT80 mRNA; A549): 1.487%
HillSlope (KRT80 mRNA) (KRT80 mRNA; A549): -1.195
Top (% KRT80 mRNA, four-parameter fit) (KRT80 mRNA; A549): 88.72%
% KRT80 mRNA (KRT80 mRNA; A549, conc 1e-10 mol/l): 68.3704%
% KRT80 mRNA (KRT80 mRNA; A549, conc 3.2e-10 mol/l): 113.907%
% KRT80 mRNA (KRT80 mRNA; A549, conc 1e-9 mol/l): 83.7736%
% KRT80 mRNA (KRT80 mRNA; A549, conc 1.6e-9 mol/l): 68.0813%
% KRT80 mRNA (KRT80 mRNA; A549, conc 8e-9 mol/l): 32.1733%
% KRT80 mRNA (KRT80 mRNA; A549, conc 1e-8 mol/l): 59.5378%
% KRT80 mRNA (KRT80 mRNA; A549, conc 4e-8 mol/l): 6.155%
% KRT80 mRNA (KRT80 mRNA; A549, conc 1e-7 mol/l): 5.176%
% KRT80 mRNA (KRT80 mRNA; A549, conc 2e-7 mol/l): 3.074%
% KRT80 mRNA (KRT80 mRNA; A549, conc 1e-6 mol/l): 3.879% and 3.0631%
EC50 (KRT80 mRNA; A549, read-out: EC50 (KRT80 mRNA)): 8.27 nM
EC50 (KRT80 mRNA; A549, read-out: LogEC50 (KRT80 mRNA) (converted)): 8.26 nM
EC50 (KRT80 mRNA; NCI-H1568, read-out: EC50 (KRT80 mRNA)): 9.77 nM
EC50 (KRT80 mRNA; NCI-H1568, read-out: LogEC50 (KRT80 mRNA) (converted)): 9.77 nM
Bottom (% KRT80 mRNA, four-parameter fit) (KRT80 mRNA; NCI-H1568): 16.16%
Top (% KRT80 mRNA, four-parameter fit) (KRT80 mRNA; NCI-H1568): 89.57%
% KRT80 mRNA (KRT80 mRNA; NCI-H1568, conc 1e-10 mol/l): 84.6925%
% KRT80 mRNA (KRT80 mRNA; NCI-H1568, conc 1.6e-9 mol/l): 88.1629%
% KRT80 mRNA (KRT80 mRNA; NCI-H1568, conc 8e-9 mol/l): 95.8588%
% KRT80 mRNA (KRT80 mRNA; NCI-H1568, conc 1e-8 mol/l): 27.1635%
% KRT80 mRNA (KRT80 mRNA; NCI-H1568, conc 4e-8 mol/l): 13.5152%
% KRT80 mRNA (KRT80 mRNA; NCI-H1568, conc 1e-7 mol/l): 10.7775%
% KRT80 mRNA (KRT80 mRNA; NCI-H1568, conc 2e-7 mol/l): 11.1934%
% KRT80 mRNA (KRT80 mRNA; NCI-H1568, conc 1e-6 mol/l): 17.4529% and 27.8788%

Cc1ncsc1-c1ccc([C@H](CCCCCN2CCC(c3ccc4c(c3)n(C3CCCC3)c3nc(=O)c5c(Br)cccc5n43)CC2)NC(=O)[C@@H]2C[C@@H](O)CN2C(=O)[C@@H](NC(=O)C2(F)CC2)C(C)(C)C)cc1 [compound 11]
Tumor volume ([1]; 30 mg/kg, Day 8): 349.89 mm3 and 236.13 mm3 and 336.08 mm3 and 316.23 mm3 and 320.2 mm3 and 407.12 mm3 and 452.47 mm3 and 403.17 mm3 and 435.99 mm3 and 529.54 mm3
Tumor volume ([1]; 30 mg/kg, Day 10): 411.87 mm3 and 252.06 mm3 and 344.92 mm3 and 322.48 mm3 and 362.94 mm3 and 435.47 mm3 and 364.71 mm3 and 506.51 mm3 and 466.2 mm3 and 503.81 mm3
Tumor volume ([1]; 30 mg/kg, Day 13): 502.78 mm3 and 248.86 mm3 and 360.62 mm3 and 361.29 mm3 and 382.81 mm3 and 518.2 mm3 and 443.39 mm3 and 514.01 mm3 and 521.41 mm3 and 705.33 mm3
Tumor volume ([1]; 30 mg/kg, Day 15): 496.47 mm3 and 228.27 mm3 and 504.98 mm3 and 354.71 mm3 and 479.1 mm3 and 517.42 mm3 and 432.15 mm3 and 457.1 mm3 and 602.75 mm3 and 762.29 mm3
Tumor volume ([1]; 30 mg/kg, Day 17): 650.01 mm3 and 225.32 mm3 and 455.8 mm3 and 341.13 mm3 and 487.7 mm3 and 435.26 mm3 and 381.47 mm3 and 461.01 mm3 and 569.17 mm3 and 686.8 mm3
Tumor volume ([1]; 100 mg/kg, Day 8): 173.57 mm3 and 358.5 mm3 and 211.9 mm3 and 263.4 mm3 and 447.51 mm3 and 347.41 mm3 and 368.98 mm3 and 478.34 mm3 and 381.06 mm3 and 544.49 mm3
Tumor volume ([1]; 100 mg/kg, Day 10): 207.49 mm3 and 318.53 mm3 and 166.3 mm3 and 272.68 mm3 and 439.29 mm3 and 419.1 mm3 and 347.63 mm3 and 427.12 mm3 and 399.48 mm3 and 552.76 mm3
Tumor volume ([1]; 100 mg/kg, Day 13): 196.26 mm3 and 416.62 mm3 and 227.85 mm3 and 452.58 mm3 and 404.81 mm3 and 268.98 mm3 and 439.16 mm3 and 468.07 mm3 and 536.7 mm3
Tumor volume ([1]; 100 mg/kg, Day 15): 224.98 mm3 and 458.86 mm3 and 260 mm3 and 554.09 mm3 and 490.11 mm3 and 263.77 mm3 and 439.21 mm3 and 536.89 mm3 and 543.63 mm3
Tumor volume ([1]; 100 mg/kg, Day 17): 221.9 mm3 and 357.16 mm3 and 324.28 mm3 and 608.34 mm3 and 580.36 mm3 and 307.51 mm3 and 368.83 mm3 and 566.83 mm3 and 599.71 mm3
Tumor volume ([1]; 100 mg/kg, Day 20): 230.91 mm3 and 452.52 mm3 and 264.14 mm3
TGI ([1]; 30 mg/kg p.o. daily): 64%
TGI ([1]; 100 mg/kg p.o. daily): 76%
